Among the test systems are SK-OV-3; SW-620; OVCAR-8; SF-539; SN12C; MDA-MB-231; HT-29; HCT-116; K562; HCT-15; DU-145; SF-268; OVCAR-3; SK-MEL-2; A498; Malme-3M; MOLT-4; RXF 393; A549; MDA-MB-435.
Test in all cases: DTP human tumour cell line panel, 48 h

Structures are written as SMILES.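 Exposure lasted 48 hours, with cells grown in 96-well plates and compounds tested at five concentrations. GI50 = concentration required for 50% inhibition of growth.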 Active and inactive are the calls of the source. No stated cut-off is given here; in the data, active = GI50 up to about 1.1 µM and inactive = higher.

Regarding `Nc1nc(N)c(C2=CCNCC2)c(=O)[nH]1`, the GI50 with SK-OV-3, in the assay with SW-620, in the assay with OVCAR-8, in the assay with SF-539, in the assay with SN12C and in the assay on MDA-MB-231 was > 100 µM (inactive) throughout. The GI50 in the assay with HT-29 was > 100 µM (inactive); with HCT-116, > 100 µM (inactive); with K562 it was > 100 µM (inactive); in the assay on HCT-15, more than 100 µM; in the assay on DU-145, > 100 µM (inactive); in the assay on SF-268 it was > 100 µM (inactive). Also, the GI50 in the assay on OVCAR-3, in the assay on SK-MEL-2, in the assay with A498, in the assay on Malme-3M, in the assay with MOLT-4 and in the assay with RXF 393 was > 100 µM (inactive) throughout. For the same compound, the GI50 with A549 and in the assay on MDA-MB-435 was > 100 µM (inactive) in each case.
In the case of `C=CCCCC1SC2=C(CC)CCCN2C1=O` (stereo not given), the GI50 in the assay with SK-OV-3 is > 100 µM (inactive); with SW-620 it was 77.4 µM (inactive); with OVCAR-8, > 100 µM (inactive); with SF-539, > 100 µM (inactive); in the assay on SN12C, > 100 µM (inactive); in the assay with MDA-MB-231 it was 92 µM (inactive). Moreover, the GI50 in the assay on HT-29 was 58.3 µM (inactive); in the assay on HCT-116, 53.8 µM (inactive); in the assay on K562, > 100 µM (inactive); in the assay with HCT-15, 40.2 µM; with DU-145, > 100 µM (inactive); in the assay on SF-268 it was 74.6 µM (inactive). For the same compound, the GI50 in the assay on OVCAR-3 is 78.7 µM (inactive); with SK-MEL-2, > 100 µM (inactive); with A498 it was 90.4 µM (inactive); in the assay on Malme-3M, 48.5 µM (inactive); in the assay on MOLT-4, 56.8 µM (inactive); in the assay with RXF 393, 40.5 µM (inactive). In addition, the GI50 in the assay with A549 was 41.6 µM (inactive); with MDA-MB-435, 84.3 µM (inactive).
Regarding `O=C1CC(=O)NC(NNS(=O)(=O)c2ccc(Cl)cc2)=N1`, the GI50 in the assay on SK-OV-3 was 58.5 µM (inactive); in the assay with SW-620, > 100 µM (inactive); in the assay on OVCAR-8, > 100 µM (inactive); with SF-539, > 100 µM (inactive); in the assay with SN12C, > 100 µM (inactive); in the assay with MDA-MB-231, > 100 µM (inactive). Moreover, the GI50 with HT-29 was > 100 µM (inactive); with HCT-116, > 100 µM (inactive); in the assay with K562 it was > 100 µM (inactive); in the assay on HCT-15, more than 100 µM; with DU-145, > 100 µM (inactive); in the assay on SF-268, > 100 µM (inactive). In addition, the GI50 in the assay on OVCAR-3, in the assay with SK-MEL-2, with A498, with Malme-3M, with MOLT-4 and in the assay on RXF 393 was > 100 µM (inactive) each time. For the same compound, the GI50 in the assay on A549 and with MDA-MB-435 was > 100 µM (inactive) each time.
With `c1cc2c(c(NC3=NCCO3)c1)CCC2`, the GI50 in the assay with SK-OV-3, in the assay with SW-620, with OVCAR-8, in the assay on SF-539, with SN12C and with MDA-MB-231 was > 100 µM (inactive) throughout. Further, the GI50 is > 100 µM (inactive) in the assay on HT-29; > 100 µM (inactive) with HCT-116; > 100 µM (inactive) with K562; more than 100 µM in the assay with HCT-15; > 100 µM (inactive) with DU-145; > 100 µM (inactive) in the assay with SF-268. The GI50 in the assay on OVCAR-3, in the assay with SK-MEL-2, in the assay with A498, in the assay with Malme-3M, with MOLT-4 and in the assay on RXF 393 was > 100 µM (inactive) in each case. In addition, the GI50 was > 100 µM (inactive) with A549 and 85.7 µM (inactive) in the assay on MDA-MB-435.
For the compound `N=C(N)SCc1ccc(Cl)cc1Cl.O=[N+]([O-])c1c(O)c(Cl)cc(Cl)c1Cl`, the GI50 with SK-OV-3 was 17.3 µM (inactive); in the assay on SW-620, 15.2 µM (inactive); in the assay with OVCAR-8, 24.3 µM (inactive); with SF-539 it was 12.9 µM (inactive); in the assay on SN12C, 11.9 µM (inactive); with MDA-MB-231, 10.7 µM (inactive). Moreover, the GI50 in the assay on HT-29 was 11 µM (inactive); with HCT-116 it was 11.8 µM (inactive); in the assay with K562, 4.35 µM (inactive); in the assay with HCT-15, 13.3 µM; with DU-145 it was 13.5 µM (inactive); in the assay on SF-268, 17 µM (inactive). For the same compound, the GI50 in the assay with OVCAR-3 is 13.1 µM (inactive); in the assay on SK-MEL-2, 12.7 µM (inactive); with A498, 13.3 µM (inactive); in the assay with Malme-3M, 15.6 µM (inactive); in the assay with MOLT-4, 7.4 µM (inactive); in the assay with RXF 393 it was 12.8 µM (inactive). Besides, the GI50 with A549 was 22.3 µM (inactive); with MDA-MB-435, 6.22 µM (inactive).
On to `O=C(NC(N1CCN(c2cc3c(cc2F)c(=O)c(C(=O)O)cn3C2CC2)CC1)(C(F)(F)F)C(F)(F)F)c1ccccc1`, for which the GI50 with SK-OV-3 was 34.1 µM (inactive); in the assay on SW-620 it was 40.5 µM (inactive); in the assay on OVCAR-8, 46 µM (inactive); in the assay on SF-539, 22 µM (inactive); in the assay on SN12C it was 36.1 µM (inactive); with MDA-MB-231 it was 22.2 µM (inactive). The GI50 was 24.1 µM (inactive) in the assay on HT-29; 34.1 µM (inactive) with HCT-116; 39.4 µM (inactive) in the assay on K562; 22.1 µM with HCT-15; 62.1 µM (inactive) in the assay on DU-145; 40.9 µM (inactive) with SF-268. Moreover, the GI50 is 43.5 µM (inactive) with OVCAR-3; 34.9 µM (inactive) with SK-MEL-2; 30.4 µM (inactive) in the assay with A498; 36.6 µM (inactive) in the assay on Malme-3M; 26.1 µM (inactive) in the assay with MOLT-4; 46.1 µM (inactive) in the assay on RXF 393. Also, the GI50 with A549 is 39.7 µM (inactive); in the assay on MDA-MB-435 it was 34.1 µM (inactive).
Regarding `C=C1c2nc3ccccc3n2C=C(c2ccc(OC)cc2)N1c1ccc(OCCN2CCCCC2)cc1`, the GI50 with SK-OV-3 is 49.1 µM (inactive); in the assay with SW-620 it was 6.27 µM (inactive); in the assay with OVCAR-8 it was 7.76 µM (inactive); in the assay on SF-539 it was 20.2 µM (inactive); with SN12C it was 27.1 µM (inactive); in the assay on MDA-MB-231, 19.8 µM (inactive). In addition, the GI50 was 20 µM (inactive) in the assay with HT-29; 5.83 µM (inactive) with HCT-116; 4.83 µM (inactive) in the assay with K562; 4.74 µM in the assay on HCT-15; 13.1 µM (inactive) with DU-145; > 30.4 µM (inactive) in the assay with SF-268. The GI50 is 19.9 µM (inactive) in the assay on OVCAR-3; 22.1 µM (inactive) with SK-MEL-2; 35.7 µM (inactive) in the assay on A498; > 48.4 µM (inactive) in the assay on Malme-3M; 2.58 µM (inactive) in the assay on MOLT-4; 27.6 µM (inactive) with RXF 393. The GI50 was 17.6 µM (inactive) in the assay with A549 and 8.69 µM (inactive) in the assay with MDA-MB-435.
For the compound `O=C1CCCCC(=O)OC2(CCCCC2=O)CC1` (stereo not given), the GI50 with SK-OV-3, with SW-620, with OVCAR-8, in the assay with SF-539, in the assay with SN12C and in the assay with MDA-MB-231 was > 100 µM (inactive) each time. Further, the GI50 in the assay with HT-29 was > 100 µM (inactive); in the assay with HCT-116 it was > 100 µM (inactive); in the assay with K562, > 100 µM (inactive); in the assay with HCT-15, more than 100 µM; in the assay with DU-145, > 100 µM (inactive); in the assay with SF-268, > 100 µM (inactive). For the same compound, the GI50 in the assay with OVCAR-3, in the assay with SK-MEL-2, in the assay on A498, in the assay on Malme-3M, with MOLT-4 and in the assay on RXF 393 was > 100 µM (inactive) in each case. The GI50 in the assay with A549 and in the assay with MDA-MB-435 was > 100 µM (inactive) throughout.
As for `CN(C)CCn1c(=O)c2ccc3c4c(nn3CCN(C)C)c3cc(N)ccc3n(c1=O)c24`, the GI50 was < 0.0211 µM (active) in the assay with SK-OV-3; < 0.0148 µM (active) in the assay with SW-620; 0.0238 µM (active) in the assay with OVCAR-8; 0.0291 µM (active) in the assay on SF-539; < 0.0199 µM (active) in the assay with SN12C; < 0.0313 µM (active) in the assay on MDA-MB-231. Moreover, the GI50 is < 0.01 µM (active) with HT-29; < 0.0145 µM (active) in the assay on HCT-116; < 0.0133 µM (active) in the assay with K562; less than 0.0169 µM in the assay with HCT-15; < 0.0167 µM (active) in the assay with DU-145; < 0.01 µM (active) in the assay with SF-268. The concentration for 50% growth inhibition (GI50) in the assay on OVCAR-3 was < 0.0151 µM (active); in the assay with SK-MEL-2, < 0.0292 µM (active); in the assay with A498, 0.061 µM (active); in the assay on Malme-3M, 0.0667 µM (active); in the assay with MOLT-4, < 0.011 µM (active); in the assay with RXF 393, < 0.032 µM (active). Besides, the GI50 with A549 was < 0.01 µM (active); in the assay with MDA-MB-435, < 0.0209 µM (active).
Consider `CC(=O)C1(C)CC(C#N)(C#N)C(C#N)=C1N` (stereo not given), for which the GI50 with SK-OV-3, with SW-620, in the assay on OVCAR-8, in the assay on SF-539, with SN12C and with MDA-MB-231 was > 100 µM (inactive) each time. The GI50 is > 100 µM (inactive) with HT-29; > 100 µM (inactive) in the assay with HCT-116; > 100 µM (inactive) in the assay on K562; more than 100 µM in the assay with HCT-15; > 100 µM (inactive) with DU-145; > 100 µM (inactive) in the assay on SF-268. Besides, the GI50 in the assay on OVCAR-3, in the assay with SK-MEL-2, in the assay on A498, in the assay on Malme-3M, in the assay with MOLT-4 and in the assay with RXF 393 was > 100 µM (inactive) in each case. Also, the results for the GI50 with A549 and with MDA-MB-435 were 25.1 µM (inactive) and > 100 µM (inactive), respectively.

Values taken from ChEMBL document CHEMBL1201862, “PubChem BioAssay data set” (2004).
